Results reported in publication PMC6858373 (Scientific Reports, 2019).
pIC50: −log10 of the molar value. Structures can show the parent of a compound that is named as a salt. Where two headings read alike, the source gives them in different places.

What was measured:
[1] = test system: Clone V cells; assay: CellTiter Blue (CTB) cell viability counter-screen
[2] = target: T1, FGF14:Nav1.6 C-tail complex (Homo sapiens, UniProt Q92915+Q9UQD0); assay: Split-luciferase complementation assay (LCA) in Clone V double stable HEK293 cells; type: cell-based; details: for Split Luciferase Assay % Lum Set 1 / Split Luciferase Assay Z-score Set 1: biological replicate Set 1; for Split Luciferase Assay % Lum Set 1 / Split Luciferase Assay %Lum Set 2: normalized to on-plate 0.3% DMSO controls (n=16 per plate); for Split Luciferase Assay %Lum Set 2 / Split Luciferase Assay Z-score Set 2: biological replicate Set 2; for Split Luciferase Assay Z-score Set 1 / Split Luciferase Assay Z-score Set 2: normalized to on-plate 0.3% DMSO controls; for Split Luciferase Assay %Lum Avg: average of Set 1 and Set 2, normalized to 0.3% DMSO controls
T1 construct: polymerase chain reaction (PCR) amplification of the FGF14 open reading frame (nt 1–855); C-terminal fragment of Nav1.6 (amino acids 1763–1976) fused with CD4ΔC-tail (amino acids 1–395); expressed in transfected cells
T1 sequence (Q92915 1-252 isoform Q92915-2): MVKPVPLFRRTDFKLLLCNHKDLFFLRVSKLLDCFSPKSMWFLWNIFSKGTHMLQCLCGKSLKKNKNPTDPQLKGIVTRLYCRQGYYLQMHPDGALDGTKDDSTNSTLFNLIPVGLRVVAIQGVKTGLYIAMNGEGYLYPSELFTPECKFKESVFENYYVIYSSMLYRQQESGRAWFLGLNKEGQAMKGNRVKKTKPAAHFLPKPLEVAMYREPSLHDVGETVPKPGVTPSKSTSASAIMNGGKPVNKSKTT
T1 sequence (Q9UQD0 1763-1976 limits assumed): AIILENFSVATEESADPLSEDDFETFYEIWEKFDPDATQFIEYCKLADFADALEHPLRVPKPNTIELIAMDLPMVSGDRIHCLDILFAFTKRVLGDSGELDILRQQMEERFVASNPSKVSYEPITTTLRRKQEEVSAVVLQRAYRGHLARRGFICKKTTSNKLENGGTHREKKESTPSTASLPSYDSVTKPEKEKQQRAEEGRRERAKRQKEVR

[3] = target: full-length P. pyralis luciferase (Photinus pyralis, UniProt P08659, K549A/L550V/N119G/N50D/S548I); type: cell-based; details: CC_NCI screening, normalized to on-plate 0.3% DMSO controls; for Luciferase Assay % Lum: full-length luciferase counter-screen luminescence; for Luciferase Assay Z-score: full-length luciferase counter-screen
full-length P. pyralis luciferase, sequence (P08659 whole entry N50D/N119G/S548I/K549A/L550V, looked up): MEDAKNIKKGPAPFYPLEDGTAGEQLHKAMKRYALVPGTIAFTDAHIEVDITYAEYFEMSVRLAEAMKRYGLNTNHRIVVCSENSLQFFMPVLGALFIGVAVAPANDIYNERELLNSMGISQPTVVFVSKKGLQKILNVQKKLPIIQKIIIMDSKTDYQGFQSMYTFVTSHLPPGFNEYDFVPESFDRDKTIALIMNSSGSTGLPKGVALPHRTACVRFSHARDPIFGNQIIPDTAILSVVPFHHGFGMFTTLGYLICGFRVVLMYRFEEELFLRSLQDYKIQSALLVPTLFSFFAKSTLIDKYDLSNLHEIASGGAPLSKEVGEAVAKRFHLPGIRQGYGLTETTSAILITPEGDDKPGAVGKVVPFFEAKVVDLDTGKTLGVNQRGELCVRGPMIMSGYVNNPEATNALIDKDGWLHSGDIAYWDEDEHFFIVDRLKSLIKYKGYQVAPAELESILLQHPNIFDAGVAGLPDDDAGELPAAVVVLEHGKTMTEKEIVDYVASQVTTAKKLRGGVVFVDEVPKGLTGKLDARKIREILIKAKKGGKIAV

[4] = test system: Clone V cells; details: for Toxicity Assay Z-score: human
[5] = CC_NCI screening, CTB cell viability fluorescence, normalized to on-plate 0.3% DMSO controls
[6] = CC_NCI screening, LCA luminescence

Row | Structure (SMILES) | Toxicity Assay % Fluor [1, 5] | Split Luciferase Assay % Lum Set 1 [2, 6] | Split Luciferase Assay %Lum Set 2 [2, 6] | Split Luciferase Assay Z-score Set 1 ([2]; CC_NCI screening, LCA) | Split Luciferase Assay Z-score Set 2 ([2]; CC_NCI screening, LCA) | Split Luciferase Assay %Lum Avg ([2]; CC_NCI screening) | Luciferase Assay % Lum [3] | Luciferase Assay Z-score [3] | Toxicity Assay Z-score ([4]; 16 h, 30 µM) | further results
1 | CNC(=O)c1ccccc1Sc1ccc2c(/C=C/c3ccccn3)n[nH]c2c1 [AXITINIB] | 91.58% | 107.95% | 91.55% | 0.64 | -0.69 | 99.75% | 40.56% | -7.61 | -1.18 | 
2 | CC[C@@H]1C(=O)N(C)c2cnc(Nc3ccc(C(=O)NC4CCN(C)CC4)cc3OC)nc2N1C1CCCC1 [BI 2536, reference compound] |  |  |  |  |  |  |  |  | -0.11 | Toxicity Assay % Fluor [1]: 99.22%
3 | CN(C)CC[C@H](CSc1ccccc1)Nc1ccc(S(=O)(=O)NC(=O)c2ccc(N3CCN(Cc4ccccc4-c4ccc(Cl)cc4)CC3)cc2)cc1[N+](=O)[O-] [ABT-737] | 107.35% | 132.95% | 126.92% | 2.66 | 2.19 | 129.94% | 95.47% | -0.58 | 1.03 | 
4 | C#Cc1cccc(Nc2ncnc3cc(OCCOC)c(OCCOC)cc23)c1 [Erlotinib hydrochloride] | 93.40% | 118.82% | 73.86% | 1.52 | -2.13 | 96.34% | 82.34% | -2.26 | -0.92 | 
5 | CNCc1ccc(-c2[nH]c3cc(F)cc4c3c2CCNC4=O)cc1 [AG014699] | 96.59% | 65.55% | 67.62% | -2.78 | -2.63 | 66.59% | 82.53% | -2.24 | -0.48 | 
6 | Clc1ccc(Nc2nnc(Cc3ccncc3)c3ccccc23)cc1 [VATALANIB] | 87.19% | 64.47% | 69.70% | -2.87 | -2.47 | 67.08% | 78.45% | -2.76 | -1.79 | 
7 | COC1=CC(c2cc3ccccc3[nH]2)=N/C1=C\c1[nH]c(C)cc1C [OBATOCLAX] | 87.39% | 59.03% | 61.38% | -3.31 | -3.14 | 60.20% | 78.33% | -2.78 | -1.76 | 
8 | O=C(/C=C/c1cccc(S(=O)(=O)Nc2ccccc2)c1)NO [PXD101] | 96.16% | 105.78% | 106.11% | 0.47 | 0.50 | 105.94% | 87.87% | -1.55 | -0.54 | 
9 | Oc1ncnc2[nH]ncc12 [Allopurinol] | 88.22% | 106.86% | 95.71% | 0.55 | -0.35 | 101.29% | 96.95% | -0.39 | -1.65 | 
10 | CS(=O)(=O)CCNCc1ccc(-c2ccc3ncnc(Nc4ccc(OCc5cccc(F)c5)c(Cl)c4)c3c2)o1 [LAPATINIB] | 85.57% |  | 95.71% |  | -0.35 | 107.26% | 87.41% | -1.61 | -2.02 | 
11 | N#Cc1ccc(C(c2ccc(C#N)cc2)n2cncn2)cc1 [Letrozole] | 93.68% | 99.25% | 115.47% | -0.06 | 1.26 | 107.36% | 99.90% | -0.01 | -0.88 | 
12 | Cc1ccc(C(=O)Nc2ccc(CN3CCN(C)CC3)c(C(F)(F)F)c2)cc1C#Cc1cnc2cccnn12 [Ponatinib] | 80.95% | 53.59% | 58.26% | -3.75 | -3.40 | 55.93% | 84.93% | -1.93 |  | Toxicity Assay Z-score [4]: -2.66
13 | C[C@]12CC[C@H](O)CC1=CC[C@@H]1[C@@H]2CC[C@]2(C)C(c3cccnc3)=CC[C@@H]12 [Abiraterone] | 84.37% | 115.56% | 148.76% | 1.26 | 3.97 | 132.16% | 85.19% | -1.90 | -2.19 | 
14 | COC(=O)C[C@](O)(CCCC(C)(C)O)C(=O)O[C@@H]1C(OC)=C[C@]23CCCN2CCc2cc4c(cc2[C@H]13)OCO4 [Omacetaxine mepesuccinate] | 93.81% | 20.98% | 19.77% | -6.39 | -6.53 | 20.37% | 87.82% | -1.56 | -0.87 | 
15 | CC(=O)OCCN1C(=O)c2c(C)nc3ccc(S(=O)(=O)N4CCOCC4)cc3c2C1=O [IVACHTIN] |  |  |  |  |  |  |  |  |  | Toxicity Assay Z-score (CTB cell viability) ([1]; CC_NCI screening, normalized to on-plate 0.3% DMSO controls): 1.25; Split Luciferase Assay Z-score Set 1 ([2]; CC_NCI screening): 0.99; Split Luciferase Assay % Lum Set 1 ([2]; CC_NCI screening): 112.30%; Split Luciferase Assay Z-score Set 2 ([2]; CC_NCI screening): -3.23; Split Luciferase Assay %Lum Set 2 ([2]; CC_NCI screening): 60.34%; Split Luciferase Assay %Lum Avg [2]: 86.32%; Luciferase Assay % Lum (full-length luciferase counter-screen) [3]: 102.63%; Luciferase Assay Z-score (full-length luciferase counter-screen) [3]: 0.34; Toxicity Assay % Fluor (CTB cell viability fluorescence) [4]: 108.95%
16 | Oc1ccc(-c2nc(-c3ccncc3)c(-c3ccc(F)cc3)[nH]2)cc1 [SB 202190] | 96.10% | 101.43% | 105.07% | 0.12 | 0.41 | 103.25% | 79.13% | -2.67 | -0.55 | 
17 | Cc1ccc(NC(=O)c2ccc(CN3CCN(C)CC3)cc2)cc1Nc1nc(-c2cccnc2)cs1 [MASITINIB] | 86.99% | 5.76% | 16.64% | -7.62 | -6.78 | 11.20% | 52.92% | -6.03 |  | Toxicity Assay Z-score ([1]; CC_NCI screening, CTB cell viability, normalized to on-plate 0.3% DMSO controls): -1.82
18 | C[C@]12O[C@H](C[C@]1(O)CO)n1c3ccccc3c3c4c(c5c6ccccc6n2c5c31)CNC4=O [Lestaurtinib, reference compound] | 90.16% | 50.33% | 40.57% | -4.01 | -4.84 | 45.45% | 87.58% | -1.59 |  | Z-score (LCA primary screening) ([2]; 30 µM, 384-well, average of primary screening (n = 2), vs on-plate 0.3% DMSO): −4.42; dose-response behavior of repurchased compounds ([2]; 10-point dose response 0.25-50 µM, Clone V cells): purely inhibitory effects; IC50 ([2]; IC50 (µM), estimated, 8-point dose response 0.25-30 µM, n = 4 per concentration, library compounds): 1.22 µM; IMin (% Luminescence) ([2]; antagonists, Clone V cells, 384-well, normalized to DMSO): 45.45 % Luminescence; action toward the FGF14:Nav1.6 C-tail interaction ([2]; dose-dependency validation using fresh compound samples): acted as antagonists; pIC50 ([2]; in-cell IC50, repurchased compounds, 10-point dose response 0.25-50 µM, n = 8 per concentration, Clone V cells, 384-well): 6.02
